Laboratory results: patent US5589373A, “Thermostable alkaline metalloprotease produced by a hyphomonas and preparation thereof” (priority 1995, dated 1996)
“Also recorded” adds a separate entry of the source. Like-named read-outs stand apart in the source and are kept apart here.

Columns and labels:
[1] = tested on: H. jannaschiana extracellular protease; assay: Effect of amino acids, casamino acids or (NH4)2SO4 on cell-free protease suspension (azocasein assay); assay type: biochemical, Hyphomonas jannaschiana VP3; parameters: Enzyme activity (%) in cell free supernatant: concentration or dose not given beside the values; settings: for Enzyme activity (%) in cell free supernatant: cell-free protease suspension, 10 minute incubation, same additions, control = 100
Experimental: (§1) Samples of the cell culture supernatants, the toluenized cells, and the cell lysates were each tested for protease activity using an azocasein assay, such as described by Long et al., J. Gen. Microbiol. 127:193-199 (1981). One unit of enzyme activity was considered equivalent to an increased absorbance of 0.1 units at a wavelength of 440 nm after a 30 minute incubation at 42° C.
In the alternative, after allowing protease synthesis and export to proceed for 2.5 hours, the cells were removed by centrifugation, and the supernatant was passed through a 0.22 μm filter. The cell-free protease suspension was then treated, as described above, with single amino acids, casamino acids, or (NH4)2 SO4. Then, enzyme activity was determined following a 10 minute incubation period.

[2] = tested on: H. jannaschiana stationary phase cells; assay: Repression of exoprotease synthesis in stationary phase cells in growth media (azocasein assay); assay type: cell-based, Hyphomonas jannaschiana VP3; settings: for activity / activity at 100000 µM: Hyphomonas jannaschiana, read-out: Enzyme activity (%) in growth media
Experimental: as §1
The stationary phase cells were resuspended in a one-tenth volume of MB, then incubated for 30 minutes at 37° C. Exoprotease activity was determined at hourly intervals following introduction of single amino acids at a final concentrations of 0.1% (v/v) o The assay was conducted over a period of 3 hours.
In a similar manner, protease activity was determined following the introduction of 100 mM (NH4)2 SO4 (ammonium sulfate) or 1% casamino acids to the growth medium.

[3] = tested on: H. jannaschiana exoprotease; assay: Recovery of chemically inhibited protease activity by Zn2+ and Ca2+; assay type: biochemical, Hyphomonas jannaschiana VP3; settings: for restoration of activity to EDTA-inactivated enzyme: 100 mM EDTA, ZnCl2 or CaCl2, 25° C.; for effect of additional ions on activity of the native protease: no inhibitor
Experimental: The ability of the divalent cations Zn^2+ and Ca^2+ to restore enzyme activity to inactivated exoprotease was examined by introducing either 5 mM ZnCl2 or 100 mM CaCl2 at a 1:1 molar ratio of ion to inhibitor to the preparations described in Example 4. Following incubation at 25° C. for 15 minutes, protease activity was assayed.

[4] = tested on: H. jannaschiana exoprotease; assay: Chemical inhibition of protease activity in filtered culture supernatant; assay type: biochemical, Hyphomonas jannaschiana VP3; settings: for exoprotease activity in additional assays, data not shown (in words): concentration not given; for protease activity after exposure to inhibitor (in words): 5 mM o-phenanthroline, 60 mM PMSF, 100 mM EDTA, 80 mM EGTA
Experimental: as §1
The effect of various protease inhibitors on the production of H. jannaschiana exoprotease was tested by measuring protease activity following the incubation of the cells with each inhibitor. Stationary phase cells, grown in MB, were pelleted and resuspended in fresh media at one-tenth of the original culture volume. The cell suspension was incubated at 37° C. for 2.5 hours to permit synthesis and export of exoprotease into the culture supernatant. Then the cells were removed by centrifugation and the supernatant was sterilized by filtration through a 0.22 μm filter.
Protease activity was measured after exposure to each inhibitor at 25° C. for 15 minutes. The inhibitors were added at the following final concentrations: 5 mM o-phenanthroline, 60 mM […] (PMSF), 10 mM and 25 mM p-chloromercuribenzoic acid (pCMB), 100 mM EDTA, 80 mM ethylene glycol bis(beta-amino-ethylether)N,N,N',N'-tetraacetic acid (EGTA).
Each bar represents treatment of the exoprotease with the following: 1=untreated exoprotease; 2=o-phenan-throline; 3=o-phenanthroline and ZnCl; 4=ZnCl; 5=EGTA; 6=EGTA and CaCl; 7=CaCl; 8=EDTA; 9=EDTA and ZnCl; 10=EDTA and CaCl; 11=pCMB (10 mM, final conc.); 12=pCMB (25 mM, final conc.); and 13=PMSF. The enzyme activity was expressed as a percentage of the activity measured in the untreated control.

[5] = tested on: functional extracellular protease; assay: Quinacrine on functional extracellular protease activity; assay type: biochemical, Hyphomonas jannaschiana
[6] = tested on: actively growing culture of H. jannaschiana; assay: Quinacrine on an actively growing culture (optical density and extracellular enzyme activity); assay type: cell-based, Hyphomonas jannaschiana; settings: 0.025 mM quinacrine
Experimental: (§2) Thus, protease export was examined in the presence of quinacrine, a signal peptidase inhibitor. Protease export in the presence of quinacrine was examined using two approaches. An actively growing culture of H. jannaschiana was monitored with respect to both optical density at 550 nm and extracellular enzyme activity in the presence of 0.025 mM quinacrine. In order to eliminate the effect of quinacrine on H. jannaschiana growth, cells were initially propagated to stationary phase, and subsequently maintained in the non-proliferating state by 10-fold concentration in fresh media which was supplemented with 0.025 mM quinacrine.

[7] = tested on: H. jannaschiana stationary phase cells; assay: Inhibition of protease export by quinacrine in non-proliferating stationary phase cells; assay type: cell-based; settings: Hyphomonas jannaschiana; for activity at 25 µM: 0.025 mM quinacrine, read-out: Enzyme activity relative to untreated control
Experimental: as §2

[8] = Thermal stability of H. jannaschiana exoprotease (azocasein assay); assay type: physicochemical, Hyphomonas jannaschiana; settings: for enzyme activity remaining after incubation at 75° C. for 30 minutes: filtered stationary phase culture supernatant, pH 9
Experimental: Filtered supernatant containing Hyphomonas jannaschiana exoprotease was maintained at 75° C. and 100° C. for various periods of time. Then, the enzyme was allowed to recalibrate to 25° C., and subsequently assayed for protease activity using the azocasein assay.

[9] = Properties of the purified thermostable alkaline metalloprotease (pH and temperature optimum, pH stability, pI); parameters: species or system Hyphomonas jannaschiana
[10] = stationary phase cells in one-tenth volume MB, 37° C., single amino acids 0.1% (v/v), 100 mM (NH4)2SO4 or 1% casamino acids, control = 100
[11] = stationary phase cells in one-tenth volume MB, 37° C., single amino acids 0.1% (v/v), control = 100
[12] = listed as alkaline exoprotease produced by H. jannaschiana

With `N.N.O=S(=O)(O)O` [(NH4)2 SO4, ammonium sulfate] the “Enzyme activity (%) in cell free supernatant” value [1] was 100%, the “extracellular enzyme activity in cell-free growth media (in words)” value ([1]; exposed to the added substance) was “no affect” and the “reduction in the synthesis of the exoprotease” value ([2]; 100 mM (NH4)2SO4) was “approximately 50%”. For the same molecule, the “Enzyme activity (%) in growth media” value [2, 10] was 56%.

In the case of `[Ca+2].[Cl-].[Cl-]` [Ca^2+, CaCl2], the “restoration of activity to EGTA-inhibited exoprotease” value ([3]; 80 mM EGTA, CaCl2 at 1:1 ion to inhibitor, 25° C., 15 minutes) is reported as “reversible; also recorded: restored”, the “restoration of activity to EDTA-inactivated enzyme” value ([3]; 15 minutes) is reported as “partially restored” and the “effect of additional ions on activity of the native protease” value [3] is reported as “no detectable effect”.

For `CC(C)CC(NC(=O)C1OC1C(=O)O)C(=O)NCCCCNC(=N)N` (centres unmarked) [E64], the “exoprotease activity in additional assays, data not shown (in words)” value [4] was “not affected”.

In the case of `O=C(O)CN(CCN(CC(=O)O)CC(=O)O)CC(=O)O` [EDTA, ethylenediaminetetra-acetic acid], the “EDTA concentration necessary to inhibit enzyme activity” value [4] is reported as “greater than 10^-2 M” and the “protease activity after exposure to inhibitor (in words)” value ([4]; 25° C., 15 minutes) is reported as “inhibited”.

In the case of `O=C(O)CN(CCOCCOCCN(CC(=O)O)CC(=O)O)CC(=O)O` [EGTA, ethylene glycol bis(beta-amino-ethylether)N,N,N',N'-tetraacetic acid], the “protease activity after exposure to inhibitor (in words)” value ([4]; 25° C., 15 minutes) is reported as “totally inhibited”.

For `O=S(=O)(F)Cc1ccccc1` [PMSF, phenylmethyl sulfonamide fluoride], the “protease activity after exposure to inhibitor (in words)” value ([4]; 25° C., 15 minutes) was “unaffected; also recorded: not affected”.

In the case of `[Cl-].[Cl-].[Zn+2]` [Zn^2+, ZnCl2], the “restoration of activity to o-phenanthroline-inhibited exoprotease” value ([3]; 5 mM o-phenanthroline, 5 mM ZnCl2, 1:1 ion to inhibitor, 25° C., 15 minutes) is reported as “reactivated; also recorded: restored”, the “restoration of activity to EDTA-inactivated enzyme” value ([3]; 15 minutes) is reported as “partially restored” and the “effect of additional ions on activity of the native protease” value [3] is reported as “significantly increased”.

With `C[C@H](N)C(=O)O` [alanine] the “Enzyme activity (%) in cell free supernatant” value [1] was 56%.

For `N[C@@H](CC(=O)O)C(=O)O` [aspartic acid], the “Enzyme activity (%) in cell free supernatant” value [1] was 60% and the activity [2, 11] was 79%.

In the case of `N[C@@H](CCC(=O)O)C(=O)O` [glutamic acid], the “Enzyme activity (%) in cell free supernatant” value [1] is reported as 52% and the activity at 100000 µM [2] is reported as 86%.

In the case of `NC(=O)CC[C@H](N)C(=O)O` [glutamine], the “Enzyme activity (%) in cell free supernatant” value [1] is reported as 52%.

In the case of `NCC(=O)O` [glycine], the “Enzyme activity (%) in cell free supernatant” value [1] is reported as 82% and the activity at 100000 µM [2, 10] is reported as 69%.

With `N[C@@H](Cc1c[nH]cn1)C(=O)O` [histidine] the “Enzyme activity (%) in cell free supernatant” value [1] was 83% and the activity [2, 11] was 87%.

With `CC(C)C[C@H](N)C(=O)O` [leucine] the “Enzyme activity (%) in cell free supernatant” value [1] was 69%.

For `OCCS` [mercaptoethanol], the “exoprotease activity in additional assays, data not shown (in words)” value [4] was “abolished”.

For `c1cnc2c(c1)ccc1cccnc12` [o-phenanthroline], the “protease activity after exposure to inhibitor (in words)” value ([4]; 25° C., 15 minutes) was “totally inhibited”.

For `O=C(O)c1cc[c]([Hg][Cl])cc1` [pCMB, p-chloromercuribenzoic acid], the “protease activity after exposure to low concentration of pCMB (in words)” value ([4]; 10 mM pCMB, 25° C., 15 minutes) was “unaffected; also recorded: not affected” and the “protease activity after exposure to high concentration of pCMB (in words)” value ([4]; 25 mM pCMB, 25° C., 15 minutes) was “reduced”.

In the case of `O=C(O)[C@@H]1CCCN1` [proline], the “Enzyme activity (%) in cell free supernatant” value [1] is reported as 93% and the activity at 100000 µM [2, 10] is reported as 108%.

In the case of `CCN(CC)CCCC(C)Nc1c2ccc(Cl)cc2nc2ccc(OC)cc12` (centres unmarked) [quinacrine], the “effect on functional extracellular protease activity (in words)” value [5] is reported as “no affect”, the “cell density and exoprotease activity after an additional 6 hour growth period (in words)” value [6] is reported as “returned to normal levels” and the inhibition of growth at 25 µM ([6]; Hyphomonas jannaschiana, 7 h, seven hours after treatment, OD 550 nm, read-out: reduction of optical density of the culture vs untreated cells) is reported as 48%. For the same molecule, the inhibition at 25 µM ([6]; Hyphomonas jannaschiana, 7 h, seven hours after treatment, read-out: exoprotease activity diminished vs untreated cells) was 73%, the activity at 25 µM ([7]; 0.5 h, time 30 min) was 100% and the activity at 25 µM ([7]; 40 min, time 40 min) was 33%. It also gave an inhibition at 25 µM ([7]; 40 min, 40 minutes after the addition of quinacrine, read-out: reduction in exported enzyme) of 67%, an activity at 25 µM ([7]; 1 h, time 60 min) of 50% and an activity at 25 µM ([7]; 1.5 h, time 90 min) of 78%. The activity at 25 µM ([7]; 2 h, time 120 min) was 82% and the activity at 25 µM ([7]; 3 h, time 180 min) was 90%.

For `N[C@@H](CO)C(=O)O` [serine], the “Enzyme activity (%) in cell free supernatant” value [1] was 64% and the activity [2, 11] was 79%.

In the case of `N[C@@H](Cc1c[nH]c2ccccc12)C(=O)O` [tryptophan], the “Enzyme activity (%) in cell free supernatant” value [1] is reported as 56%.

B1: H. jannaschiana exoprotease: extracellular thermostable alkaline metalloprotease, approximately 80,000 daltons, produced by Hyphomonas jannaschiana VP3 (protein)
chain: EICRIVMDGHCEKQGDAECHDDQQSARPADQRINQDVEQVDDQFEEQGPGRNVCGINVFGS
In the case of B1, the “activity remaining after boiling at 100° C. for 5 minutes” value [8] is reported as “at least 41%”, the “decrease of exoprotease activity after incubation at 75° C. for 30 minutes” value ([8]; azocasein assay) is reported as “about 40%” and the “reduction of extracellular protease activity after 100° C. (boiling) for 5 minutes” value ([8]; filtered culture supernatant) is reported as 41%. For the same molecule, the “enzyme activity remaining after incubation at 75° C. for 30 minutes” value [8] was “at least 60%”, the “enzyme activity remaining after incubation at 75° C. for 30 minutes” value [8, 12] was “Over 60%” and the “proteolytic activity after boiling for 5 minutes (in words)” value [8, 12] was “failed to destroy”. For the same molecule, the “proteolytic activity after boiling for 5 minutes (in words)” value ([8]; listed as thermostable alkaline exoprotease) was “did not destroy”, the “isoelectric point pI” value [9] was 4.8 and the optimal temperature ([9]; reacted at pH 9) was 45 °C. The “optimal pH” value ([9]; reaction temperature of about 60° to 65° C.) was “approximately 9.5”.
